In patent publication US12054560B2, “Bifunctional molecules recruiting antibodies and targeting cancer cells” (JIANGNAN UNIVERSITY, priority 2017, dated 2024):
Blank lines part the entries; values can stand above or below the molecule they belong to. Bridge positions count the residues as written; N and C are the ends. Ends that are not written are not given here.

Key:
[1] = test system: HUVEC (high expression of CD13); experiment: Flow cytometry, recruitment of anti-DNP antibody on HUVEC cells; assay type: cell-based; settings: 250 nM, anti-DNP antibody 20 μg/mL, FIG. 9
Protocol: Cell assay implementation: cell culture: commercial cells HUVEC (high expression of CD13) was cultured in DMEM complete medium. All cell culture conditions were 37° C., 5% CO2. Flow cytometry assay: (1) The cells were digested with trypsin, resuspended in flow medium diluted to 1×10^5 cells. 400 μL of cells (40,000 cells) were added to a sterile EP tube. (2) NGR oligopeptide (NGR peptide, amino acid sequence: GGG-cyclo-(CNGRC) (SEQ ID NO:8)) or NGR-DNP were added at a final concentration of 250 nM. In the negative control group, cells were treated with PBS. The cells were added anti-DNP (anti-DNP) antibody at a concentration of 20 μg/mL in all groups, incubate on ice for 1 h. then the cells were washed and incubated with fluorescent secondary antibody for 0.5 h. (3) The cells were thoroughly washed gently with a flow buffer, resuspended, and analyzed by instruments.

HUVEC cells [2] = experiment: ADCC assay on HUVEC cells; assay type: cell-based; settings: 250 nM, anti-DNP antibody, PBMC, LDH method, FIG. 9
Protocol: ADCC assay implementation: (1) HUVEC cells were seeded in 96-well plates at a concentration of 10,000 cells/well. After the cells were fully attached, added with NGR oligopeptide (NGR peptide, amino acid sequence: GGG-cyclo-(CNGRC) (SEQ ID NO:8)) or NGR-DNP compound at a final concentration of 250 nM and immediately added a certain concentration of anti-DNP antibody. (2) After incubation for a period of time, freshly extracted PBMC cells were added at a certain effect target ratio for a certain period of time. (3) The supernatant was removed by centrifugation, and cytotoxicity was measured by the LDH method.

HUVEC cells [3] = experiment: CDC assay on HUVEC cells; assay type: cell-based; settings: 250 nM, anti-DNP antibody, 10% complement, cck8 method, FIG. 9
Protocol: CDC assay implementation: (1) HUVEC cells were seeded in 96-well plates at a concentration of 5,000 cells/well. After the cells were fully attached, added with NGR oligopeptide (NGR peptide, amino acid sequence: GGG-cyclo-(CNGRC) (SEQ ID NO:8)) or NGR-DNP compound at a final concentration of 250 nM and added a certain concentration of anti-DNP antibody at the same time. After 2 hours of incubation at 37° C., a final concentration of 10% of the complement solution was added and incubated for 1 hour at 37° C. After the incubation, the cell viability was measured by the cck8 method.

CD13 receptor, P15144 = target: T1, CD13 receptor, P15144; experiment: cell-based or functional assay
T1 chain: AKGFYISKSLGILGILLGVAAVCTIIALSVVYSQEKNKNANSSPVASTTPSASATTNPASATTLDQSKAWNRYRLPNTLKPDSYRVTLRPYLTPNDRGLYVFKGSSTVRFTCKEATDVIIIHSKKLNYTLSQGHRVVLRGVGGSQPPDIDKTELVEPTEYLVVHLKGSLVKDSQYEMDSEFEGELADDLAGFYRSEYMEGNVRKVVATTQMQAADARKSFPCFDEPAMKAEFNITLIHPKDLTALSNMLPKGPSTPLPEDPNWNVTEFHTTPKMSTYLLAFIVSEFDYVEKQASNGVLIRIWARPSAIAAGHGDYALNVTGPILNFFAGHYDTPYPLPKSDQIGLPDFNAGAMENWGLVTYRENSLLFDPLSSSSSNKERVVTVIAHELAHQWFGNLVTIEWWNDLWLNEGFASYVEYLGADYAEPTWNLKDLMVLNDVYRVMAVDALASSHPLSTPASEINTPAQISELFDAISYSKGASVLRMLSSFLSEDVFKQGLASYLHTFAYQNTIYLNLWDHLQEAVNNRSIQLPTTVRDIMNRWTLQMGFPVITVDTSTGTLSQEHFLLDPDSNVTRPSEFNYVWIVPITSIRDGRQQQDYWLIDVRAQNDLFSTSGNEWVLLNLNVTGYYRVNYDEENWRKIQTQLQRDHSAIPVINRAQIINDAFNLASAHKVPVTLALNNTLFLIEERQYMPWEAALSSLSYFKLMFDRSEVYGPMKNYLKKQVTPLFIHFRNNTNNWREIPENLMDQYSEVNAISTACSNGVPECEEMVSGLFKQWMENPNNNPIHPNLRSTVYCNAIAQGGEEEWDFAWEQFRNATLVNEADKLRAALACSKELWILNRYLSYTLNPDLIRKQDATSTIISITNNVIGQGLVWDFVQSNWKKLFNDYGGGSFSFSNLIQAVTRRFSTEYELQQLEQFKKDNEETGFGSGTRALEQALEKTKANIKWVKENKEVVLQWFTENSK

[4] = test system: SKBR3 (HER2 positive) cells; experiment: Flow cytometry, recruitment of anti-Rha IgG on SKBR3 cells; assay type: cell-based; settings: 250 nM, Alexa 488-conjugated rabbit anti-Rha IgG, FIG. 5
Protocol: SKBR3 (HER2 positive) and MCF7 cells (HER2 negative) were grown in DMEM supplemented with 10% FBS, 1% penicillin-streptomycin. All cells were cultured at 37° C. in a 5% CO2 humidified atmosphere.
(1) Cells were cultured and detached with trypsin-EDTA and then resuspended to 1.0×10^5 cells/mL. Forty thousand of these cells were added into tubes. (2) Nanobody C7b and Rha conjugated C7b were then added to a final concentration of 250 nM, followed which Alexa 488-conjugated rabbit anti-Rha IgG antibodies were added. In the negative control group, cells were treated with PBS instead of nanobody. These cells were incubated on ice for 60 min, (3) washed with flow cytometry buffer and then analyzed using an Accuri C6 flow cytometer.

Molecule: NGR-DNP: DNP-TEG-COOH coupled to peptide GGGCNGRC, oxidized with iodine to the cyclic form (GGGCNGRC-OH; disulfide 4-8 (inferred); also: DNP-TEG-COOH coupled to peptide, site not given here)
recruitment of antibodies and targeting of tumor cells [1]: can recruit antibodies and target tumor cells | ADCC cell lysis rate (HUVEC cells [2]): approximately 60% | CDC cell lysis rate (HUVEC cells [3]): approximately 60%

CDC and ADCC cell lysis rate (CD13 receptor, P15144): 60%
B1: NGR-DNP (peptide)
peptide: GGGCNGRC
modifications: not checked

B2: C7b: anti-HER2 nanobody C7b, SEQ ID NO: 2 (related NCBI sequence ID: AFN61318.1) (protein)
VHH: MQVQLVQSGGGLVQAGGSLRLSCAASGRTFSSYAMAWFRQAPGKEREFVAAISWSGANIYVADSVKGRFTISRDNAKDTVYLQMNSLKPEDTAVYYCAVKLGFAPVEERQYDYWGQGTQVTVSSLPETGG
modifications: The HER2-specific nanobody C7b sequence was genetically engineered to contain at its C-terminus a sorting signal for further sortase A-mediated ligation.
fluorescence intensity increase compared to negative control (accumulation of anti-Rha IgGs on cells) [4]: no fluorescence intensity increase
